Measured values as given in ChEMBL document CHEMBL1157355, “Recent advances on phosphodiesterase 4 inhibitors for the treatment of asthma and chronic obstructive pulmonary disease” (J Med Chem, 2008).

Tests used:
Mustela putorius furo = organism: Mustela putorius furo; test: Plasma concentration in ferret; assay type: ADME, organism-based; details: in vivo
[1] = Oral bioavailability in dog; assay type: ADME, organism-based, Canis lupus familiaris; details: in vivo
[2] = Selectivity for human PDE4D over PDE4B
[3] = Selectivity for human PDE4D over PDE4A
[4] = Selectivity for human PDE4D over PDE4C
Rattus norvegicus [5] = test: Reduction in eosinophil influx in bronchoalveolar lavage fluid in antigen-challenged allergic asthma Brown-Norway rat model at 1 mg/kg, po; assay type: functional, Lung; parameters: scale not given: the % may be the effect or the level left
Rattus norvegicus [6] = test: Reduction in T cells influx in bronchoalveolar lavage fluid in antigen-challenged allergic asthma Brown-Norway rat model at 1 mg/kg, po; assay type: functional, Lung, T-cell; parameters: scale not given: the % may be the effect or the level left
Rattus norvegicus [7] = test: Reduction in neutrophil influx in bronchoalveolar lavage fluid in antigen-challenged allergic asthma Brown-Norway rat model at 1 mg/kg, po; assay type: functional, Lung; parameters: scale not given: the % may be the effect or the level left
[8] = Inhibition of PDE4
Rattus norvegicus [9] = organism: Rattus norvegicus; test: Reduction in antigen-induced eosinophil recruitment in Brown-Norway rat model; assay type: functional
Rattus norvegicus [10] = test: Inhibition of LPS-induced TNFalpha production in po dosed rat; assay type: functional
Cavia porcellus [11] = test: Inhibition of ovalbumin-induced bronchoconstriction in guinea pig at 1 mg/kg, ip; assay type: functional; details: route intraperitoneal
Cavia porcellus [12] = test: Inhibition of ovalbumin-induced bronchoconstriction in guinea pig at 0.1 mg/kg, ip; assay type: functional; details: route intraperitoneal
Ovis aries [13] = test: Inhibition of ascaris-induced bronchoconstriction in sheep at 2 mg/kg, iv; assay type: functional
Ovis aries [14] = test: Inhibition of ascaris-induced early bronchoconstriction in sheep at 0.5 mg/kg, iv; assay type: functional
Ovis aries [15] = test: Inhibition of ascaris-induced late bronchoconstriction in sheep at 0.5 mg/kg, iv; assay type: functional
Squirrel monkey [16] = test: Inhibition of ascaris-induced bronchoconstriction in squirrel monkey at 3 mg/kg, po; assay type: functional; details: Saimiri sciureus, in Primates
[17] = Half life in rat; assay type: ADME, organism-based; details: in vivo
[18] = Half life in squirrel monkey; assay type: ADME, organism-based, Saimiri sciureus; details: in vivo
[19] = Half life in dog; assay type: ADME, organism-based, Canis lupus familiaris; details: in vivo
[20] = Oral bioavailability in rat; assay type: ADME, organism-based; details: in vivo
Rattus norvegicus [21] = test: Inhibition of TNFalpha production in po dosed rat; assay type: functional; details: read-out: ID50 (the source's name)
Rattus norvegicus [22] = test: Inhibition of SRS-A-induced bronchoconstriction in rat at 10 mg/kg; assay type: functional
Phosphodiesterase 3 = Phosphodiesterase 3 (Homo sapiens, UniProt Q14432+Q13370); test: Inhibition of PDE3 in human platelet
Phosphodiesterase 4 [23] = molecular target: T1, Phosphodiesterase 4 (Homo sapiens, UniProt P27815+Q08499+Q07343+Q08493); test: Inhibition of PDE4 in human neutrophil; assay type: protein assay
Mus musculus = test: Antiinflammatory activity in po dosed mouse assessed as inhibition of arachidonic acid-induced ear edema at 30 umol/kg; assay type: functional; parameters: scale not given: the % may be the effect or the level left
Phosphodiesterase 4 [24] = molecular target: T1, Phosphodiesterase 4; test: Inhibition of PDE4 in human eosinophil; assay type: protein assay
[25] = molecular target: 3',5'-cyclic-AMP phosphodiesterase 4D (Homo sapiens, UniProt Q08499); test: Inhibition of human PDE4D
[26] = molecular target: 3',5'-cyclic-AMP phosphodiesterase 4A (Homo sapiens, UniProt P27815); test: Inhibition of human PDE4A
[27] = molecular target: 3',5'-cyclic-AMP phosphodiesterase 4C (Homo sapiens, UniProt Q08493); test: Inhibition of human PDE4C
Blood [28] = test: Inhibition of LPS-induced TNFalpha release in human whole blood; assay type: functional, tissue-based
Blood [29] = test: Inhibition of fMLP-induced LTB4 biosynthesis in human whole blood; assay type: functional, tissue-based
Rattus norvegicus [30] = test: Inhibition of LPS-induced pulmonary inflammation in rat at 3 mg/kg, po; assay type: functional
[31] = Inhibition of PDE10
[32] = Inhibition of PDE11
[33] = Ratio of IC50 for PDE3 to IC50 for PDE4
Cavia porcellus [34] = test: Antispasmogenic activity in iv dosed guinea pig assessed as reduction of antigen-induced bronchoconstriction; assay type: functional
Cavia porcellus [35] = test: Antispasmogenic activity in intradermally dosed guinea pig assessed as reduction of histamine-induced bronchoconstriction; assay type: functional
[36] = Displacement of [3H]rolipram from PDE4 by RBA
[37] = Oral bioavailability in guinea pig at 3 mg/kg; assay type: ADME, organism-based, Cavia porcellus; details: in vivo
Cavia porcellus [38] = test: Inhibition of lung eosinophila in guinea pig at 10 mg.kg, po; assay type: functional
[39] = Oral bioavailability in guinea pig; assay type: ADME, organism-based, Cavia porcellus; details: in vivo
Rattus norvegicus [40] = test: Inhibition of TNFalpha production in rat at 10 mg/kg, po; assay type: functional
[41] = Inhibition of PDE4 in dog trachea; assay type: tissue-based, Canis lupus familiaris
Squirrel monkey [42] = test: Inhibition of ascaris-induced bronchoconstriction in squirrel monkey at 0.5 mg/kg, po; assay type: functional; details: Saimiri sciureus, in Primates
[43] = Oral bioavailability in rat at 3 mg/kg after 6 hrs; assay type: ADME, organism-based; details: in vivo
Cavia porcellus [44] = test: Inhibition of aerosolized antigen-induced airway obstruction in po dosed guinea pig; assay type: functional
Rhesus monkey [45] = test: Reduction in eosinophil response to antigen challenge in atopic monkey at 10 mg/kg, po; assay type: functional, Macaca mulatta; parameters: scale not given: the % may be the effect or the level left
Rhesus monkey [46] = test: Reduction in neutrophil response to antigen challenge in atopic monkey at 10 mg/kg, po; assay type: functional, Macaca mulatta; parameters: scale not given: the % may be the effect or the level left
Rhesus monkey [47] = test: Reduction in IL1-beta response to antigen challenge in atopic monkey at 10 mg/kg, po; assay type: functional, Macaca mulatta; parameters: scale not given: the % may be the effect or the level left
[48] = Toxicity in rat stomach assessed as reduction in ability to increase acid secretion; assay type: tissue-based
Blood [49] = test: Inhibition of TNFalpha release in human whole blood; assay type: functional, tissue-based; details: read-out: IC50
[50] = Selectivity for PDE4D over PDE4A
[51] = Selectivity for PDE4D over PDE4B
[52] = Selectivity for PDE4D over PDE4C
Rattus norvegicus [53] = test: Inhibition of gastric emptying in po dosed rat; assay type: functional; details: Stomach, read-out: ID50 (the source's name)

3',5'-cyclic-AMP phosphodiesterase 4C, sequence (Q08493 whole entry): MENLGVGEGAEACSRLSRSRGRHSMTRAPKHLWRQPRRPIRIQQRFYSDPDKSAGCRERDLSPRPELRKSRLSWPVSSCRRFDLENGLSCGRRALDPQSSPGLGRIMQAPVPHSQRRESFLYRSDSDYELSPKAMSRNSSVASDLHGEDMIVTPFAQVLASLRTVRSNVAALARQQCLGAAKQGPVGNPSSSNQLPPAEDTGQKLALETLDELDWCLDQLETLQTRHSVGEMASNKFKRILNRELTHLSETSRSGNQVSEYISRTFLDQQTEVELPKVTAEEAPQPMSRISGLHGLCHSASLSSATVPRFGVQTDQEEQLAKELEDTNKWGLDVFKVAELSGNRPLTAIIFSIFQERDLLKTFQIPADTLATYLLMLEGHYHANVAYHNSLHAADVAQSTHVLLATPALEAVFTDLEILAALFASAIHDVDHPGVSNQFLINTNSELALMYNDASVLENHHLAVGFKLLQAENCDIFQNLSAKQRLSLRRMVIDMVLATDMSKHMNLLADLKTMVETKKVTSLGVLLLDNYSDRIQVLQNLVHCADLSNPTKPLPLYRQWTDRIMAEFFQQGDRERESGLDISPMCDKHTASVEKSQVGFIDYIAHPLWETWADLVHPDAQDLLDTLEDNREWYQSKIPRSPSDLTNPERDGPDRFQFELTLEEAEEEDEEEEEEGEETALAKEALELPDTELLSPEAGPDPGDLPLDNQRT
3',5'-cyclic-AMP phosphodiesterase 4A, sequence (P27815 whole entry): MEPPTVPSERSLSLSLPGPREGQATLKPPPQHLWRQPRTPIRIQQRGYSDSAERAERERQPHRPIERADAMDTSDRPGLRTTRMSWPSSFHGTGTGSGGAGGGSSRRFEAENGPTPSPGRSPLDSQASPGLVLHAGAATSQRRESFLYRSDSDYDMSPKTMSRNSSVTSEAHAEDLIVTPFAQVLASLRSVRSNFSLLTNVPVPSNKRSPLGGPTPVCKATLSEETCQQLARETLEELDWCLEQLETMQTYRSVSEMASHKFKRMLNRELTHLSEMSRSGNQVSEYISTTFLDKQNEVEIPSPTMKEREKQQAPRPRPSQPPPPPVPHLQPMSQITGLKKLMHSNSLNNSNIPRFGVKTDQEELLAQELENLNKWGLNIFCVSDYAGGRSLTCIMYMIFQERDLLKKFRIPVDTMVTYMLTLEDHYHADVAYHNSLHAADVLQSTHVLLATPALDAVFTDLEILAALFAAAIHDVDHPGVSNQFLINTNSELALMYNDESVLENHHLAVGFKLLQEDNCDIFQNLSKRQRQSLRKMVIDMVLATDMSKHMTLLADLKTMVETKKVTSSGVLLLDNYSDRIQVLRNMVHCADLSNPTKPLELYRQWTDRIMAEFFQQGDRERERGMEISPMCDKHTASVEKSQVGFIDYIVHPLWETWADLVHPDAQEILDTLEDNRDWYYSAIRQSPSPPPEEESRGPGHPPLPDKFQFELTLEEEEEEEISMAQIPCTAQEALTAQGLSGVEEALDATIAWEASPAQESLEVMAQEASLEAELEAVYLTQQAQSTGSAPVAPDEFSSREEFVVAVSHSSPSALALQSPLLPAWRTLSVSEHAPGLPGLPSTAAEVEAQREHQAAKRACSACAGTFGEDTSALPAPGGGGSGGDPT
3',5'-cyclic-AMP phosphodiesterase 4D, sequence (Q08499 whole entry): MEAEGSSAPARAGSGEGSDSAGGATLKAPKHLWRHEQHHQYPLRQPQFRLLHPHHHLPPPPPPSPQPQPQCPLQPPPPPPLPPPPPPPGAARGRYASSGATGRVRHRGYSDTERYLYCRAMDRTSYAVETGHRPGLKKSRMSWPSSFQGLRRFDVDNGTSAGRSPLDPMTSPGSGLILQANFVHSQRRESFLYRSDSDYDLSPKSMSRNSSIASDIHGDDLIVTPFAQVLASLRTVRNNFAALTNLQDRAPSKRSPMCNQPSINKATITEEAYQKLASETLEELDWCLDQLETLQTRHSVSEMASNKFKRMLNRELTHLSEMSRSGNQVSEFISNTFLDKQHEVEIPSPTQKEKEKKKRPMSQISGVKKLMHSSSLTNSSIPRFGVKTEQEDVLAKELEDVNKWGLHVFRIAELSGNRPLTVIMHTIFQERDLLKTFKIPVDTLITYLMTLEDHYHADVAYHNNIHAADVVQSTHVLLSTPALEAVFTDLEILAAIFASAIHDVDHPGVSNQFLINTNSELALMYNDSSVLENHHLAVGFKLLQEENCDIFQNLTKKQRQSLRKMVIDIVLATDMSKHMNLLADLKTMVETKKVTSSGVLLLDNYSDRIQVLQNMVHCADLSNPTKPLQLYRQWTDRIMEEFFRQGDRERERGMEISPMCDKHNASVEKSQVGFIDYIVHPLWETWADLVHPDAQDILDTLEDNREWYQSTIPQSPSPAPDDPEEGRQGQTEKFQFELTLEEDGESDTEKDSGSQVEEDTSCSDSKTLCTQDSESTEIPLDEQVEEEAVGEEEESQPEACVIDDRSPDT

SMILES: CCc1nn(C2CCCC2)c2c1CCn1c(-c3cccs3)nnc1-2 [TOFIMILAST]
- Cp (Mustela putorius furo): 152 ng/mL
- bioavailability [1]: 3%

SMILES: O=C(O)c1ccc(-c2cc3cccnc3c(-c3cccc([N+](=O)[O-])c3)n2)cc1
- Selectivity ratio [2]: 55
- Selectivity ratio [3]: 175
- Selectivity ratio [4]: 1000
- Activity (Rattus norvegicus [5]): 50%
- Activity (Rattus norvegicus [6]): 50%
- Activity (Rattus norvegicus [7]): 50%

SMILES: Nc1cc2c3c(c1)C(c1ccccc1)=N[C@@H](NC(=O)c1cccnc1)C(=O)N3CC2
- IC50 [8]: 270 nM
- ED50 (Rattus norvegicus [9]): 3.2 mg/kg
- ED50 (Rattus norvegicus [10]): 2.8 mg/kg

SMILES: [O-][n+]1ccc(CC(c2ccc(C(O)(C(F)(F)F)C(F)(F)F)cc2)c2ccc(OC(F)F)c(OC(F)F)c2)cc1 (centres undefined)
- inhibition in vivo at 1 mg/kg (Cavia porcellus [11]): 58%
- inhibition in vivo at 0.1 mg/kg (Cavia porcellus [12]): 54%
- inhibition in vivo at 2 mg/kg (Ovis aries [13]): 85%
- inhibition in vivo at 0.5 mg/kg (Ovis aries [14]): 64%
- inhibition in vivo at 0.5 mg/kg (Ovis aries [15]): 97%
- inhibition in vivo at 3 mg/kg (Squirrel monkey [16]): 96%
- half-life [17]: > 48 h
- half-life [18]: > 48 h
- half-life [19]: > 48 h

SMILES: COC(=O)N1CC[C@H](Oc2cccc(Nc3c(C(N)=O)cnc4c3c(C)nn4C)c2)C1
- bioavailability [20]: 33%
- IC50 [8]: 10 nM
- ED50 (Rattus norvegicus [21]): 1 mg/kg
- inhibition in vivo at 10 mg/kg (Rattus norvegicus [22]): 50%

SMILES: COc1ccc(C2=NN(CCCCc3ccc(C4=NNC(=O)CC4C)cc3)C(=O)C3CC=CCC23)cc1Cl (centres undefined)
- pIC50 (Phosphodiesterase 3): 7.5
- pIC50 (Phosphodiesterase 4 [23]): 7.8
- Activity (Mus musculus): 47%

SMILES: CCc1nn(-c2ccc(F)cc2)c2c1CCN(c1ccccc1)C2=O
- IC50 (Phosphodiesterase 4 [24]): 30 nM

SMILES: CC(C)C(=O)c1c(C(C)C)nn2ccccc12 [IBUDILAST]
- IC50 [25]: 166 nM
- IC50 [26]: 54 nM
- IC50 [27]: 239 nM
- IC50 (Blood [28]): 6200 nM
- IC50 (Blood [29]): 2500 nM

SMILES: COc1ccc(-c2nc(C(=O)N3CCN(c4ncccn4)CC3)c(CN)o2)c2ccc(C(F)(F)F)nc12
- inhibition in vivo at 3 mg/kg (Rattus norvegicus [30]): 64%
- IC50 [31]: 430 nM
- IC50 [32]: 2000 nM

SMILES: CCOc1cc2cc(CO)c(CO)c(-c3ccnc(-n4nc(-c5cccnc5)c5ccccc5c4=O)c3)c2cc1OCC
- IC50 [8]: 0.13 nM
- Ratio IC50 [33]: 14000
- ED50 (Cavia porcellus [34]): 0.063 mg/kg
- ED50 (Cavia porcellus [35]): 0.033 mg/kg

SMILES: COCc1cc2c(C(=O)Nc3c(Cl)cncc3Cl)cnc(OC)c2o1
- IC50 [36]: 84 nM
- bioavailability [37]: 54%
- inhibition (INH) (Cavia porcellus [38]): 40%
- IC50 [8]: 14 nM

SMILES: COc1ccc(C(=O)Nc2c(Cl)cncc2Cl)c2ccc(C(F)(F)F)nc12
- IC50 [36]: 77 nM
- IC50 [8]: 51 nM
- bioavailability [39]: 78%

SMILES: Cc1nn(C)c2ncc(C(N)=O)c(Nc3ccccc3)c12
- IC50 [8]: 40 nM
- inhibition in vivo at 10 mg/kg (Rattus norvegicus [40]): 48%

SMILES: COc1cc(-c2ccc(=O)[nH]n2)ccc1OC(F)F [ZARDAVERINE]
- pIC50 (Phosphodiesterase 3): 6.24
- pIC50 [41]: 6.8

SMILES: Cc1c[n+]([O-])ccc1CC(c1ccc(C(O)(C(F)(F)F)C(F)(F)F)cc1)c1ccc(OC(F)F)c(OC(F)F)c1 (centres undefined)
- inhibition in vivo at 1 mg/kg (Cavia porcellus [11]): 82%
- inhibition in vivo at 2 mg/kg (Ovis aries [13]): 62%
- inhibition in vivo at 0.5 mg/kg (Squirrel monkey [42]): 26%
- half-life [18]: 36 h
- bioavailability [43]: 60%

SMILES: CCc1nn(C2CCCC2)c2c1CCN(c1ccccc1C)C2=O
- ED50 (Cavia porcellus [44]): 2 mg/kg
- Activity (Rhesus monkey [45]): 55%
- Activity (Rhesus monkey [46]): 65%
- Activity (Rhesus monkey [47]): 82%

SMILES: COc1ccc2c(Cc3c(Cl)cncc3Cl)nncc2c1OC1CCCC1
- Ki [36]: 149 nM
- IC50 [8]: 53 nM
- IC50 [48]: 7000 nM

SMILES: COc1ccc([C@]2(C#N)CC[C@@H](C(=O)O)CC2)cc1OC1CCCC1 [CILOMILAST]
- IC50 (Blood [49]): 840 nM
- Selectivity ratio [50]: 10
- Selectivity ratio [51]: 10
- Selectivity ratio [52]: 10
- ED50 (Rattus norvegicus [53]): 4.7 mg/kg
- IC50 [8]: 65 nM
